Source: ChEMBL document CHEMBL1130163, “Synthesis and inhibition studies of sulfur-substituted squalene oxide analogues as mechanism-based inhibitors of 2,3-oxidosqualene-lanosterol cyclase” (J Med Chem, 1997)

Target: T1, Lanosterol synthase (Rattus norvegicus, UniProt P48450)
T1 sequence (P48450 whole entry): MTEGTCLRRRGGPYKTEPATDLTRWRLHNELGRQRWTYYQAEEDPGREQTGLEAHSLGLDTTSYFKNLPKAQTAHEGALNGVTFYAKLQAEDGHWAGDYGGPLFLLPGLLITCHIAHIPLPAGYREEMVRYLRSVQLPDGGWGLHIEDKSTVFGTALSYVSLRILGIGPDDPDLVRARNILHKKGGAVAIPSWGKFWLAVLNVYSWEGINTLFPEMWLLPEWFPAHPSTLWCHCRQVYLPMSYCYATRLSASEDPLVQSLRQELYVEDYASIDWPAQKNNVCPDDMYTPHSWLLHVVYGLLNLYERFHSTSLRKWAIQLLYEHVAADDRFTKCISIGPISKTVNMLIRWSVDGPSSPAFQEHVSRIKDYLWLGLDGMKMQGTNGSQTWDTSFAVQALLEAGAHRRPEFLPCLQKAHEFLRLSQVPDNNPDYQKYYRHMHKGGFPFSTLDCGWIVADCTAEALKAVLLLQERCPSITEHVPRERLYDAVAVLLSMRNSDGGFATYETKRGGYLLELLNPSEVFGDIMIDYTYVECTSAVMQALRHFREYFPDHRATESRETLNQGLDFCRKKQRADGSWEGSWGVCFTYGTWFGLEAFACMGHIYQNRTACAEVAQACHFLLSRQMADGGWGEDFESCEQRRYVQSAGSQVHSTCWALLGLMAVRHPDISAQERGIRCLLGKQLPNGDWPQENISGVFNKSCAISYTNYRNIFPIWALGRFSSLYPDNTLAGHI
Assay: Inhibition against rat liver Oxidosqualene-lanosterol cyclase

IC50: 110 nM
SMILES: CC(C)=CCCC1(C)OC1CC/C(C)=C/CC/C=C(\C)CCCC(C)CCC1OC1C (stereo unspecified)
